US20230406883A1, “COMPOUNDS AND THEIR USE IN TREATMENT OF TACHYKININ RECEPTOR MEDIATED DISORDERS” (Embark Biotech ApS, priority 2020, published 2023)
pEC50: −log10 of the molar value. “And” between values parts separate entries of the source, which are not always exact repeats. Equal entries are not always repeated. Where two headings read alike, the source gives them in different places. Numbered stars: 1 amine (or outer) side, 2 acyl side, 3 side chain; on linkers, the order of the positions; unused ones are H or OH. Square brackets hold non-standard residues; d marks the D form. Peptide text beside a SMILES is read from it. * marks the point of attachment. C18 diacid = O=C(O)CCCCCCCCCCCCCCCCC(=O)*; Phe(4-F) = N[C@@H](Cc1ccc(F)cc1)C(=O)O; γGlu = O=C(O)[C@H](CCC(=O)[*:2])N[*:1]; NMeL = CN[C@@H](CC(C)C)C(=O)O; hSer = N[C@@H](CCO)C(=O)O; AEEA = NCCOCCOCC(=O)O

Assays:
hNK1R = molecular target: T1, hNK1R (Homo sapiens, UniProt P25103); assay: IP3 assay (inositol trisphosphate, 3H-myoinositol) in transiently transfected COS-7 cells; type: cell-based; settings: for pEC50: 0.2% ovalbumin buffer
T1 construct: host or cells: COS-7
Outline: (§1)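 COS-7 cells were transiently transfected with receptor plasmid and labelled with ³H-myo-inositol. Cells were lysed in formic acid, and ³H-inositol phosphates were captured on SPA YSI beads and counted.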

hNK3R = molecular target: T2, hNK3R (Homo sapiens, UniProt P29371); assay: as above; type: cell-based
T2 construct: host or cells: COS-7
T2 sequence (P29371 1-465): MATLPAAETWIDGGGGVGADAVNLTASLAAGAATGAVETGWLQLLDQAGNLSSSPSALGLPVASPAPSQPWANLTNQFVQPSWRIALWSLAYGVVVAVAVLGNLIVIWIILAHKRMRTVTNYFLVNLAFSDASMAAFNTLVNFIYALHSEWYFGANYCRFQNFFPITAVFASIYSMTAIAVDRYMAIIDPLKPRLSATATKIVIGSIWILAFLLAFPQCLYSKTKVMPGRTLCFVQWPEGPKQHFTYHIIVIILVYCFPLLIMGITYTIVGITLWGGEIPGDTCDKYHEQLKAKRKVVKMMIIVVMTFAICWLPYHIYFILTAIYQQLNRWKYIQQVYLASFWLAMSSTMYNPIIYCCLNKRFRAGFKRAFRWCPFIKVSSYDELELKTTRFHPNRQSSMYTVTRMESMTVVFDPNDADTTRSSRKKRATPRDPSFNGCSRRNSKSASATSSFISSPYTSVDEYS
Outline: as §1

hNK2R [1] = molecular target: T3, hNK2R (Homo sapiens, UniProt P21452); assay: as above; type: cell-based; settings: COS-7 cells; for pEC50: 0.2% ovalbumin buffer; for hNK2R, IP3 Efficacy: figure legends: percent of 10^-6 M NKA
T3 construct: host or cells: COS-7
T3 sequence (P21452 1-398): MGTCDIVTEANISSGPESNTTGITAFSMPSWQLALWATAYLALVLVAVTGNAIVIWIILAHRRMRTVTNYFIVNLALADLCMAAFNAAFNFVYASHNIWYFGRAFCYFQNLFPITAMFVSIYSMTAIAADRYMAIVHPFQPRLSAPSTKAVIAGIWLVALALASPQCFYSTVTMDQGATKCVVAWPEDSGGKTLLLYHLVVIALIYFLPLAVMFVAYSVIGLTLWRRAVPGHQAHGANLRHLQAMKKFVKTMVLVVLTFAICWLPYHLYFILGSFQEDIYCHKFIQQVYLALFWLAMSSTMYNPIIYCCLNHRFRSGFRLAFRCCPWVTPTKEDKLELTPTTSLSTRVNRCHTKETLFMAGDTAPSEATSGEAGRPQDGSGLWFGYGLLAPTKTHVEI
Outline: as §1

hNK2R [2] = molecular target: T3, hNK2R; assay: 3H-NKA competitive binding on transfected COS-7 cells; settings: competition with 3H-NKA, 4 h at 4 C
Procedure: (§2) Assays were carried out using COS-7 cells transiently transfected by calcium phosphate transfection with a vector pcDNA3.1(+) encoding one of the indicated receptors (Genscript). Briefly, DNA mixed with CaCl2 (2 M) and TE-buffer (10 mM Tris-HCl, 1 mM EDTA, pH 7.5) was dropwise added to 2×HBS (50 mM HEPES, 280 mM NaCl, 1.5 mM NaH2PO4, pH 7.2) and incubated for 45 min at room temperature (22±2° C.). The mixture and a final concentration of 100 μM Chloroquine were added to the cells and left to incubate for 5 hours at 37° C. under standard cell culture conditions (10% CO2) before changing medium to fresh maintenance medium.
The ^3H-NKA binding assay measures peptide-receptor binding by a competitive principle of receptor binding between radioactively labelled (3H) NKA (tracer) and synthesized peptide ligands on live cells expressing the receptor of interest. Assay solutions used: TKR buffer (50 mM Tris/HCl pH 7.5, 5 mM MnCl2, and 150 mM NaCl), wash buffer (TKR buffer+0.2% w/v OvAlb), binding buffer (wash buffer+0.1 mg/ml Bacitracin), and tracer solution (binding buffer+˜15000 cpm/well ^3H-tracer). The assay was performed on ice the day after transfection.
Briefly, maintenance medium was aspirated, and plates were washed ×1 in cold wash buffer before adding 100 μl cold binding buffer and placing at 4° C. to let plates cool. The cold plates were added indicated peptides (ligand) immediately followed by addition of cold tracer solution (˜15000 cpm/well). Plates were immediately moved to 4° C. and incubated for 4 hours. After incubation, binding was stopped by wash ×2 with cold wash buffer before adding 225 μl Ultima Gold XR. Plates were shaken at medium speed for approximately 30 min and left overnight at room temperature before counting the plates in a MicroBeta plate counter (Perkin Elmer).

hNK2R [3] = molecular target: T3, hNK2R; assay: Hithunter cAMP assay (Gs-coupling) in transfected COS-7 cells; type: cell-based; settings: COS-7 cells
Procedure: as §2, with “As a secondary measure of agonist-induced G-protein coupled receptor (GPCR) activation cyclin adenosine monophosphate (cAMP) was measured by the Hithunter cAMP-assay from DiscoverX. Assays” for “Assays”
The cAMP-assay takes advantage of the tachykinin receptors' ability to induce production of the cAMP second messenger upon agonist (ligand) binding on receptor expressing cells. Production of cAMP stems from receptor coupling to Gs-protein although coupling to Gq-protein (IP3-production) is considered the primary signalling mechanism by tachykinin receptors.
The assay was performed the day after transfection. Briefly, maintenance medium was aspirated, and plates were washed ×1 in HBSS before adding assay buffer (HBSS+1 mM IBMX), pre-incubated for 30 min at 37° C. followed by 15 min incubation with agonist (ligand) at 37° C. After incubation, plates were subjected to cell lysis and anti-cAMP-antibody incubation as described by manufacturer. Luminescence was measured with EnVision Multimode Plate Reader from Perkin Elmer.

[4] = COS-7 cells, figure legends: percent of 10^-6 M NKA

T1 sequence (P25103 whole entry): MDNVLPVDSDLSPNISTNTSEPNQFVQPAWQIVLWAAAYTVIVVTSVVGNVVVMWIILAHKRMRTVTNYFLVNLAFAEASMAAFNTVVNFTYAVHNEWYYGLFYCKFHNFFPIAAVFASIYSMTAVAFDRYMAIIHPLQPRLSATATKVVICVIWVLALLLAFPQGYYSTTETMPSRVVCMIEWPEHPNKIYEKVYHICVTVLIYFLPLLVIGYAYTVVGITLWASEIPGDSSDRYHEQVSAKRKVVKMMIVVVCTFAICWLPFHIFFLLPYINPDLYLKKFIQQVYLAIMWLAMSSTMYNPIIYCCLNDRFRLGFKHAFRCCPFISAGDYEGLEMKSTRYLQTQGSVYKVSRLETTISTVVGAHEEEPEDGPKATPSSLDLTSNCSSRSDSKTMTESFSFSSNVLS

Structure (SMILES)	hNK1R, IP3 Efficacy (hNK1R) [%]	pEC50 (hNK1R; COS-7 cells)	hNK1R, IP3 Efficacy (hNK1R; [4]) [%]	hNK3, IP3 Efficacy (hNK3R) [%]	hNK3, IP3 Efficacy (hNK3R; [4]) [%]	pEC50 (hNK2R [1])	hNK2R, IP3 Efficacy (hNK2R [1]) [%]	pEC50 (hNK2R [2])	pEC50 (hNK2R [3])	hNK2R, cAMP Efficacy (hNK2R [3]) [%]	pEC50 (hNK3R; COS-7 cells, 0.2% ovalbumin buffer, read-out: hNK3, IP3 EC50)
COCC[C@H](NC(=O)[C@H](CC(C)C)NC(=O)CNC(=O)[C@@H](NC(=O)[C@H](Cc1ccc(O)cc1)NC(=O)[C@H](CCCCN)NC(=O)[C@H](CC(=O)O)NC(=O)COCCOCCNC(=O)COCCOCCNC(=O)CC[C@H](NC(=O)CCCCCCCCCCCCCCCCC(=O)O)C(=O)O)C(C)C)C(N)=O [compound 393, *Asp;Lys;Tyr;Val;Gly;Leu;Metox;NH2] ({C18 diacid-γGlu-AEEA-AEEA}-DKYVGL[hSer](Me)-NH2)	50	6.47 and 5.47	52	30	36	8.00	100	7.40			
CC(C)C[C@@H](C(=O)N[C@@H](Cc1ccccc1)C(N)=O)N(C)C(=O)CNC(=O)[C@@H](NC(=O)[C@H](Cc1ccc(O)cc1)NC(=O)[C@H](CCCCN)NC(=O)[C@H](CC(=O)O)NC(=O)COCCOCCNC(=O)COCCOCCNC(=O)CC[C@H](NC(=O)CCCCCCCCCCCCCCCCC(=O)O)C(=O)O)C(C)C [compound 353, *Asp;Lys;Tyr;Val;Gly;NmLeu;Phe;NH2] ({C18 diacid-γGlu-AEEA-AEEA}-DKYVG[NMeL]F-NH2)			20		0	8.60	90	7.57	~8.89	50	
COCC[C@H](NC(=O)[C@H](CC(C)C)NC(=O)[C@@H](CO)NC(=O)[C@@H](NC(=O)[C@H](Cc1ccc(O)cc1)NC(=O)[C@H](CCCCN)NC(=O)[C@H](CC(=O)O)NC(=O)COCCOCCNC(=O)COCCOCCNC(=O)CC[C@H](NC(=O)CCCCCCCCCCCCCCCCC(=O)O)C(=O)O)C(C)C)C(N)=O [compound 396, *Asp;Lys;Tyr;Val;dSer;Leu;Metox;NH2] ({C18 diacid-γGlu-AEEA-AEEA}-DKYV[dS]L[hSer](Me)-NH2)			0		0	7.70	92	6.50			
CC(C)C[C@@H](C(=O)N[C@@H](Cc1ccc(F)cc1)C(N)=O)N(C)C(=O)CNC(=O)[C@@H](NC(=O)[C@H](Cc1ccc(O)cc1)NC(=O)[C@H](CCCCN)NC(=O)[C@H](CC(=O)O)NC(=O)COCCOCCNC(=O)COCCOCCNC(=O)CC[C@H](NC(=O)CCCCCCCCCCCCCCCCC(=O)O)C(=O)O)C(C)C [compound 369, *Asp;Lys;Tyr;Val;Gly;NmLeu;4-F-Phe;NH2] ({C18 diacid-γGlu-AEEA-AEEA}-DKYVG[NMeL][Phe(4-F)]-NH2)		~6.60	40		25	8.77	90	7.12	7.27	80	~6.72
